# Test results reported in patent US10307418B2, “Azole pharmaceutical formulations for parenteral administration and methods for preparing and using the same as treatment of diseases sensitive to azole compounds” (Platform Brightworks Two, Ltd., priority 2010, dated 2019).
# Where “and” joins values, the source holds several entries; their conditions need not be identical. Equal values may be shown once. Read-outs that look alike come from different tables or passages of the source.
# Key:
# [1] = Stability of ITZA/POSA in solvent vehicles (HPLC); format: physicochemical; set-up: POSA concentration: unit: mg/mL; conditions: for POSA concentration: single determination
# [2] = Plasma pharmacology after IV injection in mice
# Procedure: (§1) Swiss Webster mice were used for pharmacokinetic studies of ITZA and its analogs. The dilation of the vein was accomplished by warming up the mice using a heat lamp. […] Mice were allowed to recover and blood samples were obtained through cardiac puncture under general anesthesia with Isoflurane/oxygen by vaporizer at various time points. Plasma was obtained by centrifugation of blood sample at 3,200 rpm for 5 min. at 4° C. Plasma proteins were precipitated by adding acetonitrile (twice the volume of plasma). The mixture was vortexed for 30 seconds and centrifuged for 5 min. at 14,000 rpm. The supernatant was saved and was injected into the HPLC to determine the respective drug concentrations.
# (§2) Unless specified, the analogous experiments were performed using POSA as an alternative to ITZA; Swiss Webster mice of both sexes with a body weight of 25-30 g were used for the in vivo pharmacology experiments (Harlan-Sprague-Dawley, Houston, Tex.). The animals were allowed a minimum of 7 days after arrival to accommodate to the new environment and allowed free access to commercial feed and tap water prior to and during the experimentation period. The animals were housed in an Association for the Assessment and Accreditation of Laboratory Animal Care International (AAALAC)-approved facility that meets the requirements of the USDA, NIH, and DHHS.
# (§3) The ITZA dose of 5 mg/kg BW was determined to be a suitable test dose that could be administered to the mice as a slow (3-4 min) IV bolus injection without requiring sedation, but could be performed with only minimal physical restraint of the animals in a standard funnel-type cage.
# (§4) The ITZA was formulated in the H3 solvent system described above as the preferred solvent to a stock concentration of 4-5 mg/mL and then diluted with NS (ratio 1:1) so the intended dose (5.0 mg/kg BW) could be injected in a tail vein in a total volume of approximately 100 μL. […] No sedative premedication was used for the mice in this experiment to avoid the possible induction of microsomal liver enzymes that could modify ITZA metabolism. Thus, the animals were unanesthetized, being only physically restrained during and immediately following the drug injection.
# (§5) Blood samples (0.5-1.0 mL) were drawn through cardiac puncture into heparinized tubes at selected time points prior to the drug infusion (“blank”), and from 5 min to 1 hour after drug injection for determination of ITZA concentrations, and for 5 min to about 7 hrs in the POSA experiment. The mice were exposed to 2% -4% isoflurane for general anesthesia. Blood samples were obtained through cardiac puncture and immediately deposited in heparinized microcentrifuge tubes.
# in vivo = conditions: both, Swiss Webster, mouse, plasma, iv, 5 mg/kg
# Procedure: as §1, §2, §3, §4, §5
# [3] = Maximum solubility of ITZA and azole analogues in solvents (HPLC); format: physicochemical; conditions: for solubility at 30 min: organic solvent or mixture, thermodynamic from solid
# Procedure: ITZA and its analogues were dissolved in various solvents incubated at 37° C. for 30 minutes, cooled down to room temperature, centrifuged at 14,000 rpm for 1 min. The supernatant was analyzed using HPLC to determine the maximum solubility of ITZA and its azole analogues.
# In a first step the maximum ITZA solubility in various single solvents was determined. To this end, ITZA and its analogs were dissolved in various solvents, incubated at 37° C. for 30 minutes, cooled down to room temperature, centrifuged at 14,000 rpm for 1 min. The supernatant was analyzed using HPLC to determine the maximum solubility of the respective agent.
# The solubility of ITZA was determined in several individual vehicles. Briefly, a known amount of ITZA drug, formulated as a powder (Sigma Inc., St Louis, Mo.), was equilibrated in the respective solvent at RT over 1-4 hours. An aliquot was removed, filtered, and prepared for HPLC to determine maximum solubility at room temperature. Based on the ITZA solubility in each vehicle, different solvents were mixed according to the cosolvency principle in an attempt to arrive at an enhanced stable solubility. […] The stock formulation was then diluted with a final diluent, i.e. NS or D5W or DlOW, to yield a stable use-formulation. The desired range of the final use-formulation was between 1 and 5 mg/mL, as it would result in a final volume that could be safely and conveniently infused intravascularly.
# An excess of ITZA as a powder was added to a multitude of chemical solvents (Table 1) at RT. Each mixture was intermittently vortexed, placed in a dark environment and checked visually for up to 4 hours for evidence of solubilization. Following centrifugation to remove solid particles, small samples were withdrawn after consecutive time intervals and the ITZA concentration was determined by HPLC as described.
# [4] = cited from earlier work
# [5] = POSA in H3G/5% Dextrose., 24 hr
smiles,measurement,setting,value
"CC[C@@H]([C@H](C)O)n1ncn(-c2ccc(N3CCN(c4ccc(OC[C@@H]5CO[C@@](Cn6cncn6)(c6ccc(F)cc6F)C5)cc4)CC3)cc2)c1=O [POSA, posaconazole]",% of 0 hr,"[1]; POSA in H3G, 0 hr",100%
same,average,"[1]; POSA in H3G, 0 hr",3.70 mg/mL
same,POSA concentration,"[1]; POSA in H3G, 0 hr",3.76 and 3.69 and 3.66
same,% of 0 hr,"[1]; POSA in H3G, 2 hr",102%
same,average,"[1]; POSA in H3G, 2 hr",3.78 mg/mL
same,POSA concentration,"[1]; POSA in H3G, 2 hr",3.93 and 3.73 and 3.67
same,% of 0 hr,"[1]; POSA in H3G, 4 hr",114%
same,average,"[1]; POSA in H3G, 4 hr",4.23 mg/mL
same,POSA concentration,"[1]; POSA in H3G, 4 hr",3.98 and 4.33 and 4.37
same,% of 0 hr,"[1]; POSA in H3G, 6 hr",114%
same,average,"[1]; POSA in H3G, 6 hr",4.23 mg/mL
same,POSA concentration,"[1]; POSA in H3G, 6 hr",3.98 and 4.33 and 4.37
same,% of 0 hr,"[1]; POSA in H3G, 8 hr",97%
same,average,"[1]; POSA in H3G, 8 hr",3.57 mg/mL
same,POSA concentration,"[1]; POSA in H3G, 8 hr",3.68 and 3.47 and 3.57
same,% of 0 hr,"[1]; POSA in H3G, 24 hr",99%
same,average,"[1]; POSA in H3G, 24 hr",3.65 mg/mL
same,POSA concentration,"[1]; POSA in H3G, 24 hr",3.73 and 3.52 and 3.70
same,% of 0 hr,"[1]; POSA in H3G/5% Dextrose., 0 hr",100%
same,POSA concentration,"[1]; POSA in H3G/5% Dextrose., 0 hr",1.76 and 1.68
same,% of 0 hr,"[1]; POSA in H3G/5% Dextrose., 2 hr",109%
same,POSA concentration,"[1]; POSA in H3G/5% Dextrose., 2 hr",1.84 and 1.81 and 2.02
same,% of 0 hr,"[1]; POSA in H3G/5% Dextrose., 4 hr",113%
same,POSA concentration,"[1]; POSA in H3G/5% Dextrose., 4 hr",1.92 and 1.91 and 2.03
same,% of 0 hr,"[1]; POSA in H3G/5% Dextrose., 6 hr",109%
same,POSA concentration,"[1]; POSA in H3G/5% Dextrose., 6 hr",1.75 and 1.93 and 2.01
same,% of 0 hr,"[1]; POSA in H3G/5% Dextrose., 8 hr",106%
same,POSA concentration,"[1]; POSA in H3G/5% Dextrose., 8 hr",1.71 and 1.89 and 1.92
same,% of 0 hr,[1]; [5],105%
same,POSA concentration,[1]; [5],1.78 and 1.80 and 1.87
same,% of 0 hr,"[1]; POSA in H3d, 0 hr",100%
same,average,"[1]; POSA in H3d, 0 hr",3.78 mg/mL
same,POSA concentration,"[1]; POSA in H3d, 0 hr",3.82 and 3.75 and 3.78
same,% of 0 hr,"[1]; POSA in H3d, 2 hr",100%
same,average,"[1]; POSA in H3d, 2 hr",3.79 mg/mL
same,POSA concentration,"[1]; POSA in H3d, 2 hr",3.67 and 3.81 and 3.89
same,% of 0 hr,"[1]; POSA in H3d, 4 hr",112%
same,average,"[1]; POSA in H3d, 4 hr",4.24 mg/mL
same,POSA concentration,"[1]; POSA in H3d, 4 hr",4.00 and 4.15 and 4.56
same,% of 0 hr,"[1]; POSA in H3d, 6 hr",118%
same,average,"[1]; POSA in H3d, 6 hr",4.45 mg/mL
same,POSA concentration,"[1]; POSA in H3d, 6 hr",4.20 and 4.32 and 4.82
same,% of 0 hr,"[1]; POSA in H3d, 8 hr",106%
same,average,"[1]; POSA in H3d, 8 hr",3.99 mg/mL
same,POSA concentration,"[1]; POSA in H3d, 8 hr",4.18 and 3.77 and 4.03
same,% of 0 hr,"[1]; POSA in H3d, 24 hr",101%
same,average,"[1]; POSA in H3d, 24 hr",3.83 mg/mL
same,POSA concentration,"[1]; POSA in H3d, 24 hr",3.81 and 3.75 and 3.92
same,% of 0 hr,"[1]; POSA in H3d/5% Dextrose, 0 hr",100%
same,POSA concentration,"[1]; POSA in H3d/5% Dextrose, 0 hr",1.75 and 1.77 and 1.81
same,% of 0 hr,"[1]; POSA in H3d/5% Dextrose, 2 hr",100%
same,POSA concentration,"[1]; POSA in H3d/5% Dextrose, 2 hr",1.77 and 1.74 and 1.83
same,% of 0 hr,"[1]; POSA in H3d/5% Dextrose, 4 hr",111%
same,POSA concentration,"[1]; POSA in H3d/5% Dextrose, 4 hr",1.88 and 1.81 and 2.20
same,% of 0 hr,"[1]; POSA in H3d/5% Dextrose, 6 hr",109%
same,POSA concentration,"[1]; POSA in H3d/5% Dextrose, 6 hr",1.95 and 1.93 and 1.94
same,% of 0 hr,"[1]; POSA in H3d/5% Dextrose, 8 hr",102%
same,POSA concentration,"[1]; POSA in H3d/5% Dextrose, 8 hr",1.86 and 1.68 and 1.90
same,% of 0 hr,"[1]; POSA in H3d/5% Dextrose, 24 hr",103%
same,POSA concentration,"[1]; POSA in H3d/5% Dextrose, 24 hr",1.78 and 1.79 and 1.93
same,tolerability of IV injection (in words),"[2]; 5.0 mg/kg BW, slow injection over 3-4 min",well accepted
same,apparent in vivo half-life,[2]; 5 mg/kg IV,6 to 7 h
same,time plasma concentrations remain in the fungi-toxic range,[2]; IV dose of 5 mg/kg,in excess of one hour
same,peak concentration (plasma),[2]; IV injection of 5 mg/kg over 4 min,3.2 to 3.3 µg/mL
same,half-life,in vivo,6 to 7 h
same,solubility at 30 min,"[3]; solvent H3D (no benzyl alcohol), solvent H3D (no benzyl alcohol), single determination, read-out: Azole solubility, [Drug] mg/mL",33.8 mg/mL
same,solubility at 30 min,"[3]; solvent H3D (no benzyl alcohol), solvent H3D (no benzyl alcohol), read-out: Azole solubility, Average mg/mL",35.3 mg/mL
same,"Azole solubility, [Drug] mg/mL","[3]; solvent H3D (no benzyl alcohol), single determination",35.08 mg/mL and 37.14 mg/mL
same,solubility at 30 min,"[3]; solvent H3G (no benzyl alcohol), solvent H3G (no benzyl alcohol), single determination, read-out: Azole solubility, [Drug] mg/mL",30.6 mg/mL
same,solubility at 30 min,"[3]; solvent H3G (no benzyl alcohol), solvent H3G (no benzyl alcohol), read-out: Azole solubility, Average mg/mL",32.2 mg/mL
same,"Azole solubility, [Drug] mg/mL","[3]; solvent H3G (no benzyl alcohol), single determination",33.86 mg/mL and 32.04 mg/mL
same,known plasma half-life,"[4]; literature (Ref 24, 32, 42, 45)",25 to 35 h
same,half-life after oral administration,"[4]; oral drug, literature",15 to 30 h
